Some results are limits rather than exact numbers.

Assay [1] has as its target BRD4-1 (Homo sapiens (Human), UniProt O60885). The assay can be described thus: Bromodomain and Extraterminal Domain (BET) Binding Assay. The settings on record: Table 3; read-out: BRD4-1 IC50. How it is done: (§1) The bromodomain binding assays were performed by Reaction Biology Corp., Malvern, Pa., USA (www.reactionbiology.com). The BET binding assays were conducted in 384 well microplates in assay buffer (50 mM HEPES-HCl, pH 7.5, 100 mM NaCl, 1 mg/ml BSA, 0.05% CHAPS, and 0.5% DMSO) with compounds added as DMSO stocks at a single concentration or with 10-point dose response titrations. BET protein or assay buffer were delivered to the appropriate wells of the microplate. Test compound was then delivered by acoustic technology via a Labcyte Echo550 liquid handler. The microplate was centrifuged for 5 min and pre-incubated for 30 min at RT with gentle shaking. The ligand (histone H4 peptide (1-21) K5/8/12/16Ac-biotin) was delivered and the microplate was again centrifuged for 5 min and allowed to incubate for 30 min at RT with gentle shaking. Donor beads were then added in the absence of light and the microplate was centrifuged and gently shaken. After 5 min, acceptor beads were added in the absence of light and the microplate was centrifuged and gently shakenin the dark for 60 min. The microplate was read using a Perkin Elmer EnSpire Alpha plate reader (λEx/λEm=680/520-620 nm). Percent inhibition was calculated relative to positive and negative controls on a per plate basis. For titration experiments, IC50 values were determined by fitting the percent inhibition versus compound concentration.

Assay [2] has as its target BRD4-2 (Homo sapiens (Human), UniProt O60885). The description is as above. The settings on record: Table 3; read-out: BRD4-2 IC50. How it is done:
as §1

The subject of assay [3] is c-Myc. Put plainly: Measurement of c-Myc suppression after washoff (Western blot). The class given is cell-based, human. The following applies: MV4-11, 2 μM for 2 hr, washed, further 6 hr. Here is the method:
MV4-11 cells were incubated with 2 μM of JQ1, mivebresib or a test compound for 2 hr. The cells were then washed twice with fresh culture medium and further cultured for another 6 hr. Cells were extracted with SDS sample buffers and then subjected to Western blot analysis to measure c-Myc. Compounds 2, 3, 12, 17, 409, 411 and 412 were tested in these assays.
In general terms: In western blotting, separated proteins are transferred to a membrane and probed.

Assay [4] relates to MV-4-11 human acute myeloid leukemia cell line. The assay can be described thus: Second cell viability assay in MV-4-11 (Cell Titer-Glo). It is filed as cell-based. The settings on record: Homo sapiens; MV4-11, Cell Titer-Glo, 72 hrs; read-out: Cell Viability IC50 in MV4-11 cells. How it is done: The effects of test compounds were studied in a second cell viability assay in the MV-4-11 human acute myeloid leukemia cell line. The cells were harvested during the logarithmic growth period and counted. Cells were seeded at a count of 15000 cells per well/100 μl. After seeding, cells were incubated at 37° C., 5% CO2 for 1 hr. Cells were treated with test compounds at 8 concentrations within a desired concentration range (e.g. 5 nM-[…]) for generation of dose response curves by preparing serial dilutions of the test compound in DMSO which were further diluted with culture medium and then added to each well. The plate was further incubated for another 72 hrs in a humidified incubator at 37° C. and 5% CO2. The assay was terminated by addition of Cell Titer-Glo reagent (Promega, Madison, Wis.) at ¼ the volume of total medium per well. Contents were mixed, the plate was incubated for 10 min at room temperature and luminescence was measured. Cell viability data were plotted using GraphPad Prism (GraphPad Software, Inc., San Diego, Calif.). In addition, a nonlinear regression model with a sigmoidal dose response and variable slope within GraphPad Prism was used to calculate the IC50 value of individual test compounds.
For orientation: Cellular ATP, detected with luciferase, serves as a proxy for viable cell number.

As to `C=CC(=O)Nc1ccc(Oc2ccc(F)cc2F)c(-c2cc(NC)c(=O)n(C)c2)c1` [Compound 1, N-(4-(2,4-difluorophenoxy)-3-(1-methyl-5-(methylamino)-6-oxo-1,6-dihydropyridin-3-yl)phenyl)acrylamide], the IC50 is 188 nM in assay [1] and 64 nM in assay [2]. On to `C=CS(=O)(=O)Nc1ccc(Oc2ccc(OC)cc2)c(-c2cn(C)c(=O)c3ccccc23)c1` [Compound 12, N-(4-(4-methoxyphenoxy)-3-(2-methyl-1-oxo-1,2-dihydroisoquinolin-4-yl)phenyl)ethenesulfonamide], for which the IC50 in assay [2] stood at 37 nM. In assay [3], the “c-Myc suppression activity after washoff” value is given as “less durable or no suppression activity”.

Regarding `C=CS(=O)(=O)Nc1ccc(Oc2ccc(F)cc2F)c(-c2cc(N(C)C)c(=O)n(C)c2)c1` [Compound 16, N-(4-(2,4-difluorophenoxy)-3-(5-(dimethylamino)-1-methyl-6-oxo-1,6-dihydropyridin-3-yl)phenyl)ethenesulfonamide], the IC50 in assay [1] came out at 6 nM; in assay [2], 26 nM. Take `C=CC(=O)Nc1ccc(Oc2ccc(F)cc2F)c(-c2cc(N(C)C)c(=O)n(C)c2)c1` [Compound 29, N-(4-(2,4-difluorophenoxy)-3-(5-(dimethylamino)-1-methyl-6-oxo-1,6-dihydropyridin-3-yl)phenyl)acrylamide]: the IC50 in assay [1] was 30 nM; in assay [2], 15 nM.

With `C=CC(=O)Nc1ccc(Oc2ccc(F)cc2)c(-c2cc(NC)c(=O)n(C)c2)c1` [Compound 30, N-(4-(4-fluorophenoxy)-3-(1-methyl-5-(methylamino)-6-oxo-1,6-dihydropyridin-3-yl)phenyl)acrylamide], the IC50 worked out at 104 nM in assay [1] and 57 nM in assay [2]. For `C/C=C/S(=O)(=O)Nc1ccc(Oc2ccc(F)cc2F)c(-c2cn(C)c(=O)c3ccccc23)c1` [Compound 86, (E)-N-(4-(2,4-difluorophenoxy)-3-(2-methyl-1-oxo-1,2-dihydroisoquinolin-4-yl)phenyl)prop-1-ene-1-sulfonamide], the values for the IC50 in assay [2] and in assay [4] were 80 nM and 273 nM, respectively. For `C=CC(=O)Nc1ccc(Oc2c(C)cc(F)cc2C)c(-c2cc(NC)c(=O)n(C)c2)c1` [Compound 167, N-(4-(4-fluoro-2,6-dimethylphenoxy)-3-(1-methyl-5-(methylamino)-6-oxo-1,6-dihydropyridin-3-yl)phenyl)acrylamide], the IC50 in assay [1] was 424 nM; in assay [2], 17 nM; in assay [4], 97 nM. For `C=CC(=O)Nc1ccc(Nc2ccc(F)cc2F)c(-c2cn(C)c(=O)c3ccccc23)c1` [Compound 305, N-(4-(2,4-difluorophenylamino)-3-(2-methyl-1-oxo-1,2-dihydroisoquinolin-4-yl)phenyl)acrylamide], the IC50 is 1710 nM in assay [1] and 2170 nM in assay [2].

With `C=CC(=O)Nc1ccc(Nc2c(C)cccc2C)c(-c2cn(C)c(=O)c3ccccc23)c1` [Compound 313, N-(4-(2,6-dimethylphenylamino)-3-(2-methyl-1-oxo-1,2-dihydroisoquinolin-4-yl)phenyl)acrylamide], the IC50 was > 10000 nM in assay [1] and 885 nM in assay [2]. On to `C=CC(=O)Nc1ccc(Oc2c(C)cccc2C)c(-c2cn(C)c(=O)c3sc(C(=O)NCC)cc23)c1` [Compound 381, 4-(5-acrylamido-2-(2,6-dimethylphenoxy)phenyl)-N-ethyl-6-methyl-7-oxo-6,7-dihydrothieno[2,3-c]pyridine-2-carboxamide], for which the half-maximal inhibitory concentration (IC50) in assay [1] worked out at 12500 nM; in assay [2], 13 nM; in assay [4], 172 nM. With `C=CC(=O)Nc1ccc(Oc2c(C)cccc2C)c(-c2cn(C)c(=O)c3ccccc23)c1` [Compound 397, N-(4-(2,6-dimethylphenoxy)-3-(2-methyl-1-oxo-1,2-dihydroisoquinolin-4-yl)phenyl)acrylamide], the IC50 in assay [1] is 9710 nM; in assay [2], 549 nM.

For `C=CC(=O)Nc1ccc(Oc2ccc(F)cc2F)c(-c2cn(C)c(=O)c3c2OCC(=O)N3)c1` [Compound 404, N-(4-(2,4-difluorophenoxy)-3-(6-methyl-3,5-dioxo-3,4,5,6-tetrahydro-2H-pyrido[4,3-b][1,4]oxazin-8-yl)phenyl)acrylamide], the IC50 in assay [2] is 1830 nM. As to `C=CC(=O)Nc1ccc(Oc2c(C)cc(F)cc2C)c(-c2cn(C)c(=O)c3ccccc23)c1` [Compound 408, N-(4-(4-fluoro-2,6-dimethylphenoxy)-3-(2-methyl-1-oxo-1,2-dihydroisoquinolin-4-yl)phenyl)acrylamide], the IC50 in assay [1] was 15900 nM; in assay [2] it was 434 nM. As to `Cc1cccc(C)c1Oc1ccc(NC(=O)/C=C/CN(C)C)cc1-c1cn(C)c(=O)c2ccccc12` [Compound 410, (E)-4-(dimethylamino)-N-(4-(2,6-dimethylphenoxy)-3-(2-methyl-1-oxo-1,2-dihydroisoquinolin-4-yl)phenyl)but-2-enamide], the IC50 in assay [2] stood at 758 nM. As for `C=CC(=O)Nc1ccc(Oc2c(F)cccc2F)c(-c2cn(C)c(=O)c3ccccc23)c1` [Compound 583, N-(4-(2,6-difluorophenoxy)-3-(2-methyl-1-oxo-1,2-dihydroisoquinolin-4-yl)phenyl)acrylamide], the IC50 came to 78 nM in assay [2] and 254 nM in assay [4]. For the compound `C#CC(=O)Nc1ccc(Oc2c(C)cccc2C)c(-c2cn(C)c(=O)c3cc(C(=O)NCC)sc23)c1` [Compound 587, 7-(2-(2,6-dimethylphenoxy)-5-propiolamidophenyl)-N-ethyl-5-methyl-4-oxo-4,5-dihydrothieno[3,2-c]pyridine-2-carboxamide], the figures for the IC50 in assay [2] and in assay [4] were 11 nM and 45 nM, respectively. Consider `C=CC(=O)Nc1ccc(Oc2c(C)cccc2C)c(-c2cn(C)c(=O)cc2OC(C)C)c1` [Compound 589, N-(4-(2,6-dimethylphenoxy)-3-(4-isopropoxy-1-methyl-6-oxo-1,6-dihydropyridin-3-yl)phenyl)acrylamide], for which the results for the IC50 in assay [1], in assay [2] and in assay [4] were 7190 nM, 12 nM and 181 nM, respectively.

With `C/C=C/C(=O)Nc1ccc(Oc2c(C)cccc2C)c(-c2cn(C)c(=O)c3cc(C(=O)NCC)sc23)c1` [Compound 611, (E)-7-(5-but-2-enamido-2-(2,6-dimethylphenoxy)phenyl)-N-ethyl-5-methyl-4-oxo-4,5-dihydrothieno[3,2-c]pyridine-2-carboxamide], the values for the IC50 in assay [1] and in assay [2] were 7370 nM and 2 nM, respectively. Turning to `C=CC(=O)Nc1ccc(N(C)c2ccc(F)cc2F)c(-c2cn(C)c(=O)c3sc(C(=O)NCC)cc23)c1` [Compound 612, 4-(5-acrylamido-2-((2,4-difluorophenyl)(methyl)amino)phenyl)-N-ethyl-6-methyl-7-oxo-6,7-dihydrothieno[2,3-c]pyridine-2-carboxamide], the IC50 in assay [2] was > 10000 nM. Consider `C=CC(=O)Nc1ccc(Oc2ccc(F)cc2F)c(-n2cc(C)c(=O)c3ccccc32)c1` [Compound 613, N-(4-(2,4-difluorophenoxy)-3-(3-methyl-4-oxoquinolin-1(4H)-yl)phenyl)acrylamide], for which the IC50 in assay [2] was found to be 27 nM; in assay [4], 6020 nM.

For `CCS(=O)(=O)Nc1ccc(Oc2ccc(F)cc2F)c(-n2cc(C)c(=O)c3ccccc32)c1` [Compound 616, N-(4-(2,4-difluorophenoxy)-3-(3-methyl-4-oxoquinolin-1(4H)-yl)phenyl) ethanesulfonamide], the IC50 in assay [1] is 11 nM; in assay [2], 4 nM; in assay [4], 38 nM. `C=CC(=O)n1cc(-c2cc(NS(=O)(=O)CC)ccc2Oc2ccc(F)cc2F)c2ccccc2c1=O` [Compound 662, N-(3-(2-acryloyl-1-oxo-1,2-dihydroisoquinolin-4-yl)-4-(2,4-difluorophenoxy)phenyl)ethanesulfonamide]: in assay [2], the IC50 is > 10000 nM. `CCS(=O)(=O)Nc1ccc(Oc2ccc(F)cc2F)c(-c2cn(C)c(=O)c3[nH]ccc23)c1` [mivebresib, reference compound]: the “c-Myc suppression activity after washoff” value in assay [3] is listed as “rebound in c-Myc expression”.

One may read the IC50 as the midpoint of a concentration-inhibition curve.

(Values after patent US11192900B2, “Substituted 1,6-dihydropyridinones and 1,2-dihydroisoquinolinones as bet inhibitors” (NUVATION BIO INC., priority 2018, dated 2021).)
